# Measurements taken from paper PMC12040169 (PLOS Biology, 2025).
# Assay: in vitro
# Conditions: human, hela cells
row,Compound,"viability at 28.5 h, 10 µM [%]"
1,CN(C)C(=O)Oc1cc(CN2CCCC2)c2ccn(S(=O)(=O)c3ccccc3)c2c1 [CBK137151T],101

# Same assay, conditions: human, hela cells, % viability
row,Compound,"viability at 28.5 h, 10 µM [%]"
1,O=C(c1cccc(C(F)(F)F)c1)N1CCCC2(CCN(Cc3ccccc3)C2)C1 (stereo not shown) [CBK137039],90.4
2,O=C(c1cc(F)c(F)cc1F)N1CCC2(CCCNC2)C1 (stereo not shown) [CBK137068T],87
3,O=C(Cc1nnn[nH]1)N1CCCC2(CCN(C(=O)c3ccoc3)C2)C1 (stereo not shown) [CBK137077],91.8
4,COc1ccc(C(=O)N2CCC3(CCCN(C(=O)c4ccc5[nH]c(=O)[nH]c5c4)C3)C2)cc1OC (stereo not shown) [CBK137086],98.5
5,Cc1ccc(S(=O)(=O)CC(=O)N2CCCC3(CCN(Cc4ccccc4)C3)C2)cc1 (stereo not shown) [CBK137098T],90.7
6,CCOC(=O)C1(C2CCCCC2)CCN(C(=O)c2cc(C)[nH]n2)CC1 [CBK137100],96.2
7,CCOC(=O)C1(C2CCCCC2)CCN(C(=O)c2cscn2)CC1 [CBK137101],82.1
8,CCOC(=O)C1(C2CCCCC2)CCN(C(=O)c2ccc(S(N)(=O)=O)cc2)CC1 [CBK137105],93.2
9,O=c1[nH]c2ccccc2n1CCCN1CCC[C@@H]1CN1CCCC1 [CBK137111T],93.5
10,O=C(O)CCN1CCCC2(CCN(C(=O)Cc3c[nH]c4ccccc34)C2)C1 (stereo not shown) [CBK137138],114
11,COc1ccc(C(=O)N2CCC3(CCCN(CCc4c[nH]c5ccccc45)C3)C2)cc1OC (stereo not shown) [CBK137143],89.9
12,O=C(c1ccc2[nH]ccc2c1)N1CCC2(CCN(Cc3ccccc3)C2)C1 (stereo not shown) [CBK137146],98.5
13,O=C(Cc1ccsc1)N1CCC2(CCCNC2)C1 (stereo not shown) [CBK137153C],85.4
14,O=C(CC1CCCCC1)N1CCC2(CCCNC2)C1 (stereo not shown) [CBK137154C],91.5
15,O=C(c1ccc(OC(F)(F)F)cc1)N1CCC2(CCCNC2)C1 (stereo not shown) [CBK137156C],87.7
16,Nc1nccn(CCOc2cc(F)c(F)cc2F)c1=O [CBK138204T],92.6
17,CC(=O)Nc1ccc(-c2ccc(COC3CCN(C(=O)OC(C)(C)C)CC3)cc2)cc1 [CBK138215],99.8
18,CN1CCC(COC(=O)Nc2cccnc2)CC1 [CBK138232],108

row,Compound,"viability at 28.5 h, 10 µM [%]"
1,Cc1cc(C)nc(NC(=O)OCCc2cccnc2)c1 [CBK138234],95.1
2,Cc1cc(C)nc(NC(=O)OCCN2CCN(C)CC2)c1 [CBK138235],92.2
3,Cc1ncccc1COC(=O)Nc1cccnc1 [CBK138237],94.3
4,NC(=O)CCN1CCC(Cc2ccccc2)CC1 [CBK138317],117
5,O=c1[nH]c2ccccc2n1CCCN1CCC(Cc2ccccc2)CC1 [CBK138318],104
6,COc1cc2c(cc1OC)CN(CC1CCCCC1)CC2 [CBK138321],101
7,COc1cc2c(cc1OC)CN(CCO)CC2 [CBK138322],108
8,c1ccc(CCN2CCN(Cc3ncc[nH]3)CC2)cc1 [CBK138328],120
9,c1ccc2c(c1)CCCN2Cc1nc2ccccc2[nH]1 [CBK138329],107
10,c1ccc2c(c1)CCCN2CCc1c[nH]c2ccccc12 [CBK138330],97.3
11,O=c1cc(CN2CCCc3ccccc32)[nH]c(=O)[nH]1 [CBK138331],95.1
12,c1ccc2c(c1)CCCN2Cc1ncc[nH]1 [CBK138332],89.2
13,COc1ccc(Cl)cc1N1CCN(CC2CCCCC2)CC1 [CBK138336],77.8
14,c1ccc(CCN2CCN(CC3COc4ccccc4O3)CC2)cc1 (stereo not shown) [CBK138342],86
15,NC(=O)CN1CCCc2ccccc21 [CBK138343],90
16,COc1ccc(CCC(=O)Nc2cccc(OCCC3CCNCC3)c2)cc1OC [CBK138350],95.6
17,COc1cc(CC(=O)Nc2cccc(-c3ccc(OC4CCNCC4)cc3)n2)cc(OC)c1OC [CBK138351],83.4

# Same assay, conditions: human, hela cells, % viability, bulk resorufin, single well
row,Compound,"viability at 28.5 h, 10 µM [%]"
1,CCOC(=O)C1(c2ccccc2)CCN(C(=O)CC(C)(C)N)CC1 [CBK137117],96.6
